Among the data in PubChem BioAssay AID179 (DTP/NCI, 2004) are EC50, IC50 and outcome values, retold here.

The assay deals with CEM cells HIV-1 protection, formazan growth assay. Put plainly: NCI AIDS Antiviral Assay. The following applies: for IC50: measured here: growth of uninfected CEM cells. In short, it runs like this:
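Protection of CEM cells against HIV-1 was scored from cell growth (soluble formazan) across five concentrations, with parallel uninfected cells. Lack of protection may reflect toxicity.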

Usually EC50 stands for the concentration needed to bring the measured effect to its halfway point. The term IC50 denotes the concentration at which inhibition is half-maximal. The low end stands for greater potency in that assay, the high end for weaker potency in that assay.

Activity calls are given as the source filed them.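 How the source made its calls: active means compounds giving half or more protection of infected cells from virus-caused growth loss, again on retest; inactive means the rest.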 *1 amine or outer side, *2 acyl side, *3 side chain or, on linkers, in order; H or OH if unused. Where a SMILES comes first, the peptide text is derived from it. Bridges are numbered along the chain shown (N, C = ends). [ ]: non-standard residue; d: D form. The star is where a group is joined. Fmoc = O=C(OCC1c2ccccc2-c2ccccc21)*; X2 = O=C(C(CCCCNO[*:3])N[*:1])[*:2]

For `Cc1oc2c(C)c3oc(=O)cc(C)c3cc2c1CN`, the EC50 is above 50.1 µM and the 50% inhibitory concentration (IC50) stood at 7.08 µM.

On to `CC1CCOC(=O)/C=C/C=C/C(=O)OC2CC3OC4C5OC5(C)C(O)CC4(COC(=O)C1O)C2(C)C31CO1` (stereo unspecified), for which the EC50 was above 2 µM and the IC50 is 0.0468 µM.

For the compound `CC(C)N1CCOC(c2ccc(O)c(O)c2)C1` (stereo unspecified), the EC50 is above 200 µM and the concentration for half-maximal inhibition (IC50) was determined as 95.5 µM.

For `C[C@]12CCC(=O)C(O)=C1CC[C@@H]1C2CC[C@]2(C)NC(=O)CCC12` (stereo partly specified), the EC50 was above 40.7 µM and the IC50 was above 40.7 µM.

On to `C=CCCCn1ccc2ccccc21`, for which the outcome was inactive.

Turning to `CCOc1cc2c(cc1O)/C(=N/NS(=O)(=O)c1ccc(C)cc1)C[C@@H]1[C@@H]2CC[C@]2(C)[C@@H](O)CC[C@@H]12`, the EC50 was above 200 µM and the IC50 was determined as 0.229 µM.

On to `COC1=C2C[C@](OC)(C#CC=CC#CC2O)CC1(C)C` (stereo partly specified), for which the EC50 was above 200 µM and the half-inhibitory concentration (IC50) was determined as 97.7 µM.

For `CCOC(=O)c1sc(N/N=C2\NC(=O)/C(=C/c3ccc([N+](=O)[O-])cc3)S2)nc1C`, the EC50 is above 200 µM and the IC50 stood at 135 µM.

Turning to `COc1cc2c(c(O)c1OC)C(O)C1CCC(=O)N1C2c1cccc2ccccc12` (stereo unspecified), the EC50 is above 200 µM and the half-inhibitory concentration (IC50) stood at 52.5 µM.

`CCOc1ccccc1NC(=O)C(=O)C(/C(=N/N)C(=O)OC)c1nc2ccc([N+](=O)[O-])cc2[nH]c1=O` (stereo unspecified): the EC50 is above 263 µM and the IC50 is above 263 µM.

As for `CC#CC(OCC)(OCC)OCC`, the EC50 is above 1350 µM and the IC50 is above 1350 µM.

In the case of `CCC1(C)NN=c2s/c(=C/c3ccc(OC)cc3)c(=O)n2N1` (stereo unspecified), the outcome was inactive.

`COc1cccc(CCCCCCCC(=O)O)c1`: the EC50 was above 200 µM and the IC50 was above 200 µM.

As for `CC(=O)Oc1cc(-c2oc3cc(OC(C)=O)c(C4OC(CO)C(O)C(O)C4O)c(OC(C)=O)c3c(=O)c2O)c(OC(C)=O)cc1O` (stereo unspecified), the EC50 was above 200 µM and the IC50 was above 200 µM.

On to `O=C(O)[C@@H]1C[C@@H](O)CN1C(=O)OCc1ccccc1`, for which the outcome was inactive.

In the case of `O=CCc1c2c(nc3ccccc13)C(=O)c1ccccc1C2=O`, the EC50 is above 20 µM and the IC50 amounted to 7.94 µM.

With `N[C@H](C(=O)O)[C@H](Cl)CC(=O)O`, the EC50 was above 245 µM and the half-inhibitory concentration (IC50) was above 245 µM.

Regarding `O=S(=O)(O)OC1CCCCC1Nc1ccccc1` (stereo unspecified), the outcome was inactive.

As to `C/C(=C\c1ccccc1)C(O)S(=O)(=O)O` (stereo unspecified), the outcome was inactive.

With `COC(=O)N1CC[C@@H]2CCC=C(c3cccc4c3OCO4)[C@@H]21`, the outcome was inactive.

Regarding `C1CNCCNCCN1`, the EC50 was above 200 µM and the 50% inhibitory concentration (IC50) was above 200 µM.

`CCOP(=O)(OCC)[C@]12C[C@@H](C)C=C[C@H]1COC2=O`: the EC50 was above 200 µM and the half-inhibitory concentration (IC50) was found to be 135 µM.

For the compound `O=c1ccn(CC2(CO)CCC2)c(=O)[nH]1`, the EC50 was above 200 µM and the IC50 was above 200 µM.

As for `Cc1ccc(S(=O)(=O)c2c(C)cc(C)cc2C)cc1`, the EC50 was above 200 µM and the concentration for half-maximal inhibition (IC50) worked out at 12.6 µM.

For `CC(C)OC(=O)[C@H]1ON2O[C@H](O[C@@H]3CCCC[C@H]3c3ccccc3)C([Si](C)(C)c3ccccc3)[C@H]3OC(=O)[C@@H]1C32` (stereo partly specified), the EC50 was above 200 µM and the IC50 was found to be 158 µM.

In the case of `CCOC(=O)c1nc2ccc(C(F)(F)F)cc2nc1Oc1ccc(C#N)cc1`, the EC50 is above 200 µM and the IC50 was above 200 µM.

On to `C/C(=N\NC(N)=S)c1ccc(/C(C)=N/NC(N)=S)cc1`, for which the outcome was inactive.

In the case of `COc1cc(CC(C)=O)cc(OC)c1`, the EC50 is above 200 µM and the IC50 came to 95.5 µM.

In the case of `O=C(O)c1ccc(NNC(=O)c2cccc3c(=O)c4ccccc4[nH]c23)cc1`, the EC50 was above 200 µM and the 50% inhibitory concentration (IC50) amounted to 74.1 µM.

Take `Nc1ncc2c(ncn2CC(O)CO)n1` (stereo unspecified): the EC50 is above 1200 µM and the IC50 was above 1200 µM.

For `C/C=C(\CCC1NCCc2c1[nH]c1ccccc21)[Si](C)(C)C` (stereo unspecified), the result was inactive.

For `CC(=O)N1CCC2(c3ccccc3N(C(C)=O)C2c2ccc(O)cc2)C1C(=O)O` (stereo unspecified), the outcome was inactive.

For `CN(C)c1nc2oc(-c3ccccc3)c(-c3ccccc3)c2c2nncn12`, the EC50 was above 151 µM and the half-inhibitory concentration (IC50) is above 151 µM.

As to `COc1ccccc1/C=C1\CCc2ccccc2C1=O`, the EC50 was above 27.5 µM and the IC50 is 15.5 µM.

On to `Cc1ccc(S(=O)(=O)/N=C2/N(C)CCCS2(=O)=O)cc1`, for which the EC50 was above 200 µM and the IC50 is above 200 µM.

As to `O=c1[nH]c(NCc2ccc(Cl)cc2)nc2nc[nH]c12`, the EC50 was above 200 µM and the 50% inhibitory concentration (IC50) was 55 µM.

In the case of `CCc1c(O)nc(Nc2nc3ccccc3[nH]2)[nH]c1=O`, the EC50 was above 200 µM and the half-maximal inhibitory concentration (IC50) is above 200 µM.

As to `C=CCCCCCCCC(O)C1C[C@H](O)C(CCCCC)O1` (stereo partly specified), the result was inactive.

Take `c1ccc(N=C2SC(c3ccccc3)CN2C23CC4CC(CC(C4)C2)C3)cc1` (stereo unspecified): the EC50 is above 200 µM and the IC50 was above 200 µM.

As for `Cc1cc2n(C)cc(-c3ccnn3C)c(=O)n2n1`, the EC50 is above 151 µM and the 50% inhibitory concentration (IC50) is above 151 µM.

Consider `COc1cc2cc(OC)c3cc4c(cc3c2c(OC)c1OC)OCO4`, for which the EC50 was above 39.8 µM and the 50% inhibitory concentration (IC50) is above 39.8 µM.

Turning to `NC(=O)N/N=C1/CCCCC1c1ccccc1` (stereo unspecified), the EC50 was above 407 µM and the concentration for half-maximal inhibition (IC50) was above 407 µM.

As for `O=S(=O)(O)c1cc(N=Nc2c(O)ccc3ccccc23)ccc1/C=C/c1ccc(N=Nc2c(O)ccc3ccccc23)cc1S(=O)(=O)O`, the EC50 was above 50.1 µM and the half-inhibitory concentration (IC50) was above 50.1 µM.

With `COc1cc(CC2c3cc(OC)c(OC)cc3CCN2C)c(C(=O)O)cc1OC` (stereo unspecified), the outcome was inactive.

In the case of `NC(=O)CNC(=O)C1CCCN1C(=O)C1CCCCNOC(=O)CCC(NC(=O)OCC2c3ccccc3-c3ccccc32)C(=O)NC(Cc2c[nH]c3ccccc23)C(=O)N1` (stereo unspecified) (Fmoc-EW[X2]PG-NH2; ester 1-3; configuration not given here), the concentration for a half-maximal effect (EC50) was 70.8 µM and the 50% inhibitory concentration (IC50) was above 100 µM.

As for `N#Cc1c2c(cn3c1nc1ccccc13)CCCCC2`, the EC50 is above 151 µM and the 50% inhibitory concentration (IC50) was above 151 µM.

Turning to `CCOC(=O)C1N(S(=O)(=O)c2ccc(C)cc2)CCC12C(c1ccc(OC)c(OC)c1)=Nc1ccccc12` (stereo unspecified), the result was inactive.

In the case of `O=c1c(-c2ccccc2)coc2cc(O)ccc12`, the EC50 is above 200 µM and the IC50 came out at 52.5 µM.

Consider `OCC12C=CC(C1)c1ccccc12` (stereo unspecified), for which the EC50 is above 251 µM and the IC50 is above 251 µM.

In the case of `O=C1CCC2(c3ccc(Cl)cc3)Nc3ccc(Cl)cc3N12` (stereo unspecified), the EC50 is above 16.2 µM and the IC50 is above 16.2 µM.

Take `COC(=O)N1c2c(ccc3c2OCO3)C23C4CN5CCCC(CCC12C(=O)OC)(CC4=O)C53` (stereo unspecified): the EC50 is above 7.94 µM and the IC50 is above 7.94 µM.

In the case of `CCc1ccc(Nc2cc(=O)n(C)c(SCc3ccccc3)n2)cc1`, the EC50 was above 200 µM and the IC50 is above 200 µM.

As for `Cc1nc(C)c(N2CCN(S(=O)(=O)N(Cc3ccccc3)Cc3ccccc3)CC2)c(=O)[nH]1`, the EC50 was above 200 µM and the half-maximal inhibitory concentration (IC50) was above 200 µM.

Turning to `NC12CCC(CC1=O)C2` (stereo unspecified), the EC50 is above 200 µM and the IC50 is above 200 µM.
